Patent US11465987B2, “Compounds for treatment of cancer” (ONCTERNAL THERAPEUTICS, INC., priority 2012, dated 2022)
Counter-ions that a name gives are not always drawn. Like-named read-outs stand apart in the source and are kept apart here. Values belong to the compound of their own block, whether it stands above or below them.

Assays:
[1] = tested on: DU 145 human prostate cancer cell line; assay: Cytotoxicity (SRB) assay, DU 145; type: cell-based
Source text: (§1) Cells were stained with SRB solution.

[2] = tested on: LNCaP human prostate cancer cell line; assay: Cytotoxicity (SRB) assay, LNCaP; type: cell-based
Source text: as §1

[3] = tested on: PPC-1 human prostate cancer cell line; assay: Cytotoxicity (SRB) assay, PPC-1; type: cell-based
Source text: as §1

[4] = tested on: PC-3 human prostate cancer cell line; assay: cells
Source text: as §1

[5] = tested on: melanoma and prostate cancer cell lines; assay: Antiproliferative activity summarised over the cell line panel (range or average); type: cell-based; details: for antiproliferative activity in words: Tables 1-3
[6] = tested on: A375 human melanoma cell line; assay: Cytotoxicity (SRB) assay, A375; type: cell-based; details: Homo sapiens, A-375, SRB assay, human melanoma A375; read-out: IC50 A375
[7] = tested on: B16-F1 mouse melanoma cell line; assay: Cytotoxicity (SRB) assay, B16-F1; type: cell-based; details: Mus musculus, B16-F1, SRB assay, mouse melanoma B16-F1; read-out: IC50 B16-F1
[8] = Homo sapiens, DU-145, read-out: IC50 ± SEM, DU 145
[9] = Homo sapiens, LNCaP, read-out: IC50 ± SEM, LNCaP
[10] = Homo sapiens, PPC-1, read-out: IC50 ± SEM, PPC-1
[11] = Homo sapiens, read-out: IC50 ± SEM, PC-3
[12] = Homo sapiens, DU-145, Table 13A, read-out: inhibitory effects, DU145
[13] = Homo sapiens, LNCaP, Table 13A, read-out: inhibitory effects, LNCaP
[14] = Homo sapiens, PPC-1, Table 13A, read-out: inhibitory effects, PPC1
[15] = Homo sapiens, read-out: inhibitory effects, PC3, Table 13A
[16] = Homo sapiens, DU-145, Table 6A, read-out: IC50 ± SEM, DU 145
[17] = Homo sapiens, LNCaP, Table 6A, read-out: IC50 ± SEM, LNCaP (converted)
[18] = Homo sapiens, PPC-1, Table 6A, read-out: IC50 ± SEM, PPC-1 (converted)
[19] = Homo sapiens, read-out: IC50 ± SEM, PC-3, Table 6A
[20] = range over prostate cancer cell lines, read-out: IC50 range against prostate cancer cells
[21] = Homo sapiens, read-out: IC50 PC-3, SRB assay, prostate cancer PC-3
[22] = Table 13A, read-out: inhibitory effects, DU145
[23] = Table 13A, read-out: inhibitory effects, LNCaP
[24] = Table 13A, read-out: inhibitory effects, PPC1
[25] = read-out: inhibitory effects, PC3, Table 13A
[26] = Homo sapiens, DU-145, SRB assay, prostate cancer DU 145, read-out: IC50 DU 145
[27] = Homo sapiens, LNCaP, SRB assay, prostate cancer LNCaP, read-out: IC50 LNCaP
[28] = Homo sapiens, PPC-1, SRB assay, prostate cancer PPC-1, read-out: IC50 PPC-1
[29] = Tables 11-13, read-out: IC50 (average of all seven cell lines)
[30] = Homo sapiens, read-out: IC50 ± SEM, PC-3, Table 13
[31] = Tables 1-2, read-out: IC50 (range or bound over tested cell lines)

SMILES: COc1cc(C(=O)c2cccc(-c3cc(OC)c(OC)c(OC)c3)c2)cc(OC)c1OC [compound 35]
- IC50 [1, 8]: 21900 nM
- IC50 [2, 9]: 1500 nM
- IC50 [3, 10]: 15000 nM
- IC50 [4, 11]: 40100 nM

SMILES: O=C(c1csc(-c2ccccc2)n1)c1c(F)c(F)c(F)c(F)c1F [compound 17]
- IC50 [1, 16]: 2600 nM
- IC50 [2, 17]: 2100 nM
- IC50 [3, 18]: 1300 nM
- IC50 [4, 19]: 1900 nM

SMILES: COc1cc(C(=O)c2ccc(-c3ccccc3)o2)cc(OC)c1OC [1d, (5-Phenylfuran-2-yl)(3,4,5-trimethoxyphenyl)methanone]
- IC50 [5, 20]: 12 to 35 nM
- IC50 [4, 21]: 21 nM

SMILES: CNCc1ccc(-c2nc(C(=O)c3cc(OC)c(OC)c(OC)c3)cs2)cc1.Cl [2s, (2-(4-((Methylamino)methyl)phenyl)thiazol-4-yl)(3,4,5-trimethoxyphenyl)methanone hydrochloride]
- IC50 ([1]; Homo sapiens, SRB assay, prostate cancer DU 145, read-out: IC50 DU 145): > 10000 nM
- antiproliferative activity in words [5]: abrogated activity
- IC50 ([4]; Homo sapiens, read-out: IC50 PC-3): > 10000 nM

SMILES: COc1cc(C(=O)c2csc(-c3ccccc3)c2)cc(OC)c1OC [1f, (5-Phenylthiophen-3-yl)(3,4,5-trimethoxyphenyl)methanone]
- IC50 [5, 20]: 12 to 35 nM
- IC50 [4, 21]: 12 nM

SMILES: COc1cc(C(O)c2csc(-c3ccccc3)n2)cc(OC)c1OC (centres unmarked) [2b, (2-Phenylthiazol-4-yl)(3,4,5-trimethoxyphenyl)methanol]
- antiproliferative activity in words [5]: inactive
- IC50 [4, 21]: > 10000 nM

SMILES: Cc1ccc(-c2nc(C(=O)c3ccc(F)cc3)cn2C(=O)c2ccc(F)cc2)cc1 [compound 29]
- IC50 [1, 16]: > 10000 nM
- IC50 [2, 17]: 1790 nM
- IC50 [3, 18]: > 10000 nM
- IC50 [4, 19]: > 10000 nM

SMILES: COc1cc(C(=O)c2csc(-c3ccc(N(C)C)cc3)n2)cc(OC)c1OC [2o, (2-(4-(Dimethylamino)phenyl)thiazol-4-yl)(3,4,5-trimethoxyphenyl)methanone]
- IC50 [1, 26]: 121 nM
- IC50 [2, 27]: 65 nM
- IC50 [6]: 38 nM
- IC50 [3, 28]: 73 nM
- IC50 [7]: 42 nM
- IC50 [4, 21]: 73 nM

SMILES: COc1cc(C(=O)c2nc(-c3ccc(C)cc3)c[nH]2)cc(OC)c1OC [70f, (4-p-Tolyl-1H-imidazol-2-yl)(3,4,5-trimethoxyphenyl)methanone and (5-p-tolyl-H-imidazol-2-yl)(3,4,5-trimethoxyphenyl)methanone]
- IC50 [2, 23]: 13 nM

SMILES: COc1cc(C(=O)c2csc(-c3ccc(CN(C)C)cc3)n2)cc(OC)c1OC.Cl [2u, (2-(4-((Dimethylamino)methyl)phenyl)thiazol-4-yl)(3,4,5-trimethoxyphenyl)methanone hydrochloride]
- antiproliferative activity in words [5]: abrogated activity
- IC50 [4, 21]: > 10000 nM

SMILES: CCCn1cc(-c2ccccc2)nc1C(=O)c1cc(OC)c(OC)c(OC)c1 [70ab]
- IC50 ([1]; Homo sapiens, DU-145, read-out: inhibitory effects, DU145): 71.6 nM
- IC50 ([2]; Homo sapiens, LNCaP, read-out: inhibitory effects, LNCaP): 49.4 nM
- IC50 ([3]; Homo sapiens, PPC-1, read-out: inhibitory effects, PPC1): 9.8 nM
- IC50 ([4]; Homo sapiens, read-out: inhibitory effects, PC3): 25.6 nM

SMILES: COc1cc(C(=O)c2csc(-c3cccs3)n2)cc(OC)c1OC [compound 25]
- IC50 [1, 8]: 24 nM
- IC50 [2, 9]: 48 nM
- IC50 [3, 10]: 13 nM
- IC50 [4, 11]: 44 nM

SMILES: COc1cc(NC(=O)c2csc(-c3ccccc3)n2)cc(OC)c1OC [2g, 2-Phenyl-N-(3,4,5-trimethoxyphenyl)thiazole-4-carboxamide]
- IC50 [2, 27]: > 10000 nM
- IC50 [4, 21]: > 10000 nM

SMILES: COc1cc(C(=O)C2N(C)C=C(c3ccccc3)N2C)cc(OC)c1OC (centres unmarked) [compound 105, (1,3-Dimethyl-4-phenyl-2,3-dihydro-1H-imidazol-2-yl)(3,4,5-trimethoxyphenyl)methanone]
- IC50 [2, 27]: 4240 nM
- IC50 [3, 28]: 5290 nM
- IC50 [4, 21]: 3490 nM

SMILES: COc1cc(Sc2cccc(-c3ccccc3)c2)cc(OC)c1OC [4a, Biphenyl-3-yl(3,4,5-trimethoxyphenyl)sulfane]
- IC50 [2, 27]: 2300 ± 200 nM
- IC50 [6]: 1600 ± 400 nM
- IC50 [4, 21]: > 10000 nM

SMILES: COc1cc(/C(=N\O)c2csc(-c3ccccc3)n2)cc(OC)c1OC [2e-trans, (E)-(2-Phenylthiazol-4-yl)(3,4,5-trimethoxyphenyl)methanone oxime]
- IC50 [5, 31]: > 10000 nM
- IC50 [4, 21]: > 10000 nM

SMILES: COc1cc(C(=O)c2cc(-c3ccccc3)ncn2)cc(OC)c1OC [1b, (6-Phenylpyrimidin-4-yl)(3,4,5-trimethoxyphenyl)methanone]
- IC50 [5, 31]: 3700 to 8300 nM
- IC50 [4, 21]: 8300 nM

SMILES: COc1cc(C(=O)c2csc(Nc3ccc(C)cc3)n2)cc(OC)c1OC [5Hb, (2-(p-tolylamino)thiazol-4-yl)(3,4,5-trimethoxyphenyl)methanone hydrochloride salt]
- IC50 [1, 26]: 35 ± 1 nM
- IC50 [2, 27]: 35 ± 1 nM
- IC50 [3, 28]: 36 ± 1 nM
- IC50 [4, 21]: 38 ± 2 nM

SMILES: COc1cc(C(=O)c2csc(-c3ccc(N)cc3)n2)cc(OC)c1OC [compound 26]
- IC50 [1, 8]: 16 nM
- IC50 [2, 9]: 23 nM
- IC50 [3, 10]: 15 nM
- IC50 [4, 11]: 16 nM

SMILES: COc1cc(C(=O)c2nc(-c3ccccc3)cn2-c2ccccn2)cc(OC)c1OC [70ad]
- IC50 [1, 12]: 36.3 nM
- IC50 [2, 13]: 19.5 nM
- IC50 [3, 14]: 7.8 nM

SMILES: COc1cc(/C(=N/O)c2csc(-c3ccccc3)n2)cc(OC)c1OC [2e-cis, (Z)-(2-Phenylthiazol-4-yl)(3,4,5-trimethoxyphenyl)methanone oxime]
- fold more activity than anti-isomer ([5]; 2e-cis vs 2e-trans): 10 fold
- IC50 [5, 31]: 100 to 300 nM
- IC50 [4, 21]: 120 nM

SMILES: COc1cc(C(=O)c2nc(-c3ccc(O)cc3)c[nH]2)cc(OC)c1OC [70i, (4-(4-Hydroxyphenyl)-1H-imidazol-2-yl)(3,4,5-trimethoxyphenyl)methanone and (5-(4-hydroxyphenyl)-1H-imidazol-2-yl)(3,4,5-trimethoxyphenyl)methanone)]
- IC50 [1, 22]: 518 nM
- IC50 [2, 23]: 219 nM
- IC50 [3, 24]: 122 nM
- IC50 [4, 25]: 155 nM

SMILES: COc1cc(-c2cccc(CO)c2)cc(OC)c1OC [compound 39]
- IC50 [1, 16]: 16800 nM
- IC50 [2, 17]: 4300 nM
- IC50 [3, 18]: 21400 nM
- IC50 [4, 19]: 32500 nM

Now from value to compound, other results behind:

- IC50 [4, 15]: 72 nM
SMILES: COc1cc(C(=O)c2nc(-c3ccccc3)cn2Cc2ccccc2)cc(OC)c1OC [70o, (1-Benzyl-4-phenyl-1H-imidazol-2-yl)(3,4,5-trimethoxyphenyl)methanone]
- IC50 [1, 12]: 160 nM
- IC50 [2, 13]: 67 nM
- IC50 [3, 14]: 77 nM

- IC50 [4, 25]: 196 nM
SMILES: COc1cc(C(=O)c2nc(-c3ccc(F)cc3)c[nH]2)cc(OC)c1OC [70b, (4-(4-Fluorophenyl)-1H-imidazol-2-yl)(3,4,5-trimethoxyphenyl)methanone and (5-(4-fluorophenyl)-H-imidazol-2-yl)(3,4,5-trimethoxyphenyl)methanone]
- IC50 [1, 22]: 353 nM
- IC50 [2, 23]: 114 nM
- IC50 [3, 24]: 13 nM

- IC50 [5, 29]: 1000 to 50000 nM
- IC50 [4, 30]: > 10000 nM
SMILES: O=C(c1ccc(F)cc1)c1cn(S(=O)(=O)c2ccccc2)c(-c2ccccc2C(F)(F)F)n1 [11ib, (1-(phenylsulfonyl)-2-(2-(trifluoromethyl)phenyl)-1H-imidazol-4-yl)(4-fluorophenyl)methanone]

- IC50 [4, 15]: 56 nM
SMILES: COc1cc(C(=O)c2nc(-c3ccccc3)cn2C2CCCC2)cc(OC)c1OC [70p, (1-cyclopentyl-4-phenyl-1H-imidazol-2-yl)(3,4,5-trimethoxyphenyl)methanone]
- IC50 [1, 12]: 167 nM
- IC50 [2, 13]: 51 nM
- IC50 [3, 14]: 63 nM

- IC50 ([5]; read-out: IC50 (range over tested cell lines)): 7 to 25 nM
- IC50 [4, 21]: 7 nM
SMILES: COc1cc(C(=O)c2csc(-c3ccc4[nH]ccc4c3)n2)cc(OC)c1OC [66a]

- IC50 [5, 29]: 1000 to 50000 nM
- IC50 [4, 30]: 10000 nM
SMILES: COc1ccc(-c2nc(C(=O)c3ccc(F)cc3)cn2S(=O)(=O)c2ccccc2)cc1OC [11hb, (2-(3,4-dimethoxyphenyl)-1-(phenylsulfonyl)-1H-imidazol-4-yl)(4-fluorophenyl)methanone]

- IC50 [4, 15]: 52.5 nM
SMILES: COc1cc(C(=O)c2nc(-c3ccccc3)cn2C(C)C)cc(OC)c1OC [70ac]
- IC50 [1, 12]: 114 nM
- IC50 [2, 13]: 62.2 nM
- IC50 [3, 14]: 15 nM

- IC50 [5, 29]: 1000 to 50000 nM
- IC50 [4, 30]: > 10000 nM
SMILES: COc1cc(-c2nc(C(=O)c3ccc(F)cc3)cn2S(=O)(=O)c2ccccc2)cc(OC)c1OC [11eb, (4-fluorophenyl)(1-(phenylsulfonyl)-2-(3,4,5-trimethoxyphenyl)-1H-imidazol-4-yl)methanone]

- IC50 [5, 29]: 1000 to 50000 nM
- IC50 [4, 30]: > 10000 nM
SMILES: COc1cc(C(=O)c2cn(S(=O)(=O)c3ccccc3)c(-c3cc(OC)c(OC)c(OC)c3)n2)cc(OC)c1OC [11ea, (1-(phenylsulfonyl)-2-(3,4,5-trimethoxyphenyl)-1H-imidazol-4-yl)(3,4,5-trimethoxyphenyl)methanone]
